Laboratory results taken from US5541213A, “Propenoic acid derivatives diazole propenoic acid compounds which have useful pharmaceutical utility” (Eisai Co., Ltd., priority 1993, dated 1996).

Key:
[1] = system: Fisher 344 male rats (glycerol-induced renal trouble model); experiment: Activity against glycerol-induced renal trouble model; assay type: in vivo, rat; details: 0.3 mg/5 ml/kg orally 60 minutes before 50% glycerol i.m. 10 ml/kg, blood sampled after about 24 hours
Experimental: Fisher 344 male rats aged 8 weeks and weighing 200 to 230 g were kept without water for 18 hours prior to the use. Thereafter, the test compound was orally administered forcedly to the test group of rats in an amount of 0.3 mg/5 ml/kg, while a solvent [2% Tween 80 solution] to the control group of rats in an amount of 5 ml/kg. After 60 minutes from the administration of the test compound or solvent, a 50% solution of glycerol in physiological saline was intramuscularly administered to each rat through both left and right femoral muscles in an amount of 10 ml of kg. After the completion of the intramuscular administration, the rats were watered. After about 24 hours, the rats were etherized and blood was sampled from each rat. The blood samples thus prepared were each centrifuged to collect serum, which was analyzed for urea nitrogen and creatinine.

[2] = system: Fisher 344 male rats (cisplatin-induced trouble model); experiment: Activity against cisplatin-induced gastric trouble model; assay type: in vivo, rat; details: cisplatin 6 mg/5 ml/kg s.c., 1 mg/5 ml/kg orally, repeated over four days, blood sampled on the fifth day
Experimental: Cisplatin was subcutaneously administered to Fisher 344 male rats aged 7 weeks and weighing 170 to 200 g in an amount of 6 mg/5 ml/kg. Immediately after the administration, the test compound was orally administered forcedly to the test group of rats in an amount of 1 mg/5 ml/kg, while a solvent (2% Tween 80 solution) to the control group of rats in an amount of 5 ml/kg. Six hours after the administration, the administration of the test compound and the solvent to the test group and the control group respectively was conducted in a similar manner to that described above. Thereafter, the same administration was repeated on the next day twice, and on the third and forth days each once. On the fifth day, the rats were etherized and blood was sampled from each rat. The blood samples thus prepared were analyzed for serum urea nitrogen and creatinine.

[3] = target: T1, right atrium of Hartley male guinea pigs (heart rate lowering effect of adenosine) (Cavia porcellus, UniProt P47745); experiment: Adenosine antagonism (heart rate lowering effect of adenosine in isolated right atrium); assay type: cell-based; details: guinea pig right atrium, 37° C., dipyridamole added, 20 minutes with test compound, adenosine added cumulatively; spontaneous heart rate; read-out: pA2 value (adenosine antagonism) (converted)
T1 construct: the right atrium was extirpated from the heart; from tissue; host or cells: isolated right atrium of Hartley male guinea pigs
T1 sequence (P47745 1-326): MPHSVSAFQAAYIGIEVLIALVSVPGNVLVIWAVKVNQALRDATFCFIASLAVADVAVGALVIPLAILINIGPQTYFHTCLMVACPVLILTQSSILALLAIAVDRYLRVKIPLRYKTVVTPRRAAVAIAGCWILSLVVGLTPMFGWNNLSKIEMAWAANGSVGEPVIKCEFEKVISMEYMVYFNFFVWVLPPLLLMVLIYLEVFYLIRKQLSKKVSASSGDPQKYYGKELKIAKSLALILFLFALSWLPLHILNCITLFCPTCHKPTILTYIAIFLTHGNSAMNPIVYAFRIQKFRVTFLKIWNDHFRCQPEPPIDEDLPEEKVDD
Experimental: Hartley male guinea pigs weighing 250 to 400 g were beaten to death. The heart was immediately extirpated from each guinea pig and put in the Krebs-Heuseleit solution saturated with a gas mixture comprising 95% of oxygen and 5% of carbon dioxide. Thereafter, the right atrium was extirpated from the heart. The samples thus preparer were each vertically suspended in a Magnus tube (capacity: 6 ml) filled with a nutrient liquid at 37° C. and the same gas mixture as that used above was passed through the tube.
The change in tension was isometrically determined under a load of about 0.5 g and the spontaneous heart rate was measured and recorded with a cardiotachometer by utilizing the signal of the change as a trigger.
After the stabilization of the sample, 10^-5 mol of dipyridamole was added to each Magnus tube. Thereafter, the test compound was added directly to each of the Magnus tubes of the test group in a state dissolved in DMSO, while a solvent (DMSO) to each of the Magnus tubes of the control group in the same amount as that added to each Magnus tube of the test group. The resulting Magnus tubes was allowed to stand for 20 minutes. […]
The EC50 value with respect to the heart rate lowering effect of adenosine was calculated and the adenosine antagonism was represented by pA2 value (-log M).

Fisher male rats = experiment: Diuretic activity; assay type: in vivo, rat; details: 1 mg/25 ml/kg orally in 0.4% Tween 80 in physiological saline; urine collected for 2 hours
Experimental: Fisher male rats aged 8 weeks and weighing 190 to 210 g were fasted for 18 hours prior to the use. The test compound was orally administered forcedly to the test group of rats in a state dispersed in a 0.4% solution of Tween 80 in physiological saline in an amount of 1 mg/25 ml/kg, while a 0.4% solution of Tween 80 in physiological saline to the control group of rats in the same amount as that administered to the test group. Immediately after the administration, the rats were put in individual metabolism cages respectively to collect urine from each rat for 2 hours. The urinary volume of each rat was determined and thereafter the urine was examined for uric acid concentration to calculate the amount of uric acid egested. The control group was composed of six rats, while the test group three rats. The amounts of uric acid excreted from the rats of each group were averaged out to determine the increment of the excretion of uric acid based on the averages.

Q: With `O=C(/C=C/c1c[nH]nc1-c1cccc(F)c1)NC(Cc1ccccn1)c1cc(Cl)ccn1` (single isomer, unassigned; (+)) [Example 2, (+)-(E)-N-{1-(4-Chloropyridin-2-yl)-2-(pyridin-2-yl)ethyl}-3-{3-(3-fluorophenyl)-1H-pyrazol-4-yl}-2-propenamide] as the molecule, how does the serum creatinine ([1]; *P < 0.05 vs control (4.76 ± 0.21)) read?
A: 3.47 ± 0.30 mg/dL

Q: And the Serum urea nitrogen ([1]; *P < 0.05 vs control (185.4 ± 3.2))?
A: 142.4 ± 10.5 mg/dL

Q: And the serum creatinine ([2]; *P < 0.05 vs control (2.15 ± 0.16))?
A: 1.49 ± 0.04 mg/dL

Q: What about the Serum urea nitrogen ([2]; *P < 0.05 vs control (93.4 ± 6.5)) of the same molecule?
A: 52.9 ± 2.3 mg/dL

Q: And the Kb [3]?
A: 0.0389 nM

Q: What about the “amount of uric acid excreted (control group taken as 100%)” value (Fisher male rats) of the same molecule?
A: 166%

Q: What about the “urinary volume of the test group (control group taken as 100%)” value (Fisher male rats) of the same molecule?
A: 605%
